SMILES strings stand for the structures.

One data set can be described thus: solvent given as SMILES. As to conditions: in C1CCCCC1.
Take `ClC(Cl)=C1c2ccccc2C(C2(Cl)c3ccccc3C(=C(Cl)Cl)c3ccccc32)c2ccccc21` (centres undefined): the emission maximum turned out to be 425.81 nm.

In the case of `COc1ccc2c(c1)-c1ccccc1C2=O`, the emission maximum was 472 nm.

Compound `CNc1cccc2c1C(=O)c1ccccc1-2` returned an emission maximum of 497 nm.

For the compound `N#Cc1c2nc3ccccn3c2nc2nc3ccccn3c12`, the emission maximum stood at 485 nm.

Turning to `CC(C)(C)c1ccc2c(c1)Sc1cc(C(C)(C)C)ccc1N2c1ccc2c(ccc3nc4ccc5cc(N6c7ccc(C(C)(C)C)cc7Sc7cc(C(C)(C)C)ccc76)ccc5c4nc32)c1`, the emission maximum is given as 575 nm.

The same data set, now with this note: in C1CCOC1.
`C1=C(c2ccccc2)C=C(c2ccccc2)/C1=C/c1ccc2ccc3cccc4ccc1c2c34`: the emission maximum is 480 nm.

Turning to `N#C/C(=C\c1ccc(C=C(c2ccccc2)c2ccccc2)cc1)c1ccccc1`, the emission maximum is 468 nm.

Regarding `COc1cccc(OC)c1C1=C2C(C)=CC(C)=[N+]2[B-](F)(F)n2c(C)cc(C)c21`, the emission maximum was found to be 520 nm.

In the case of `CN(C)c1ccc(/C=C/C=C2\CC/C(=C\c3ccc(N(C)C)cc3)C2=O)cc1`, the emission maximum stood at 649 nm.

The compound `CC(C)(C)c1ccc2c(c1)sc1[n+]2[B-](F)(F)n2c(c3cccc4c(Br)ccc2c43)=C1C#N` had an emission maximum of 563 nm.

For the compound `COC(C)CC1=N/C(=C\c2cccc(N(C)C)c2)C(=O)N1C` (centres undefined), the emission maximum was determined as 569 nm.

Compound `COc1cc(OC)c(C2=C3C(C)=CC(C)=[N+]3[B-](F)(F)n3c(C)cc(C)c32)c(OC)c1` came in with an emission maximum of 517 nm.

The data set is the same for the next values; noted with them: in C1COCCO1.
In turn, `N#Cc1c2nc3ccccn3c2nc2nc3ccccn3c12` displayed an emission maximum of 505 nm.

The same data set, now with this note: in CC#N.
Take `C[n+]1cc2ccc3c[n+](C)c4ccccc4c3c2c2ccccc21`: the emission maximum is 504 nm.

In the case of `C/C=C/c1cccc(OC)c1`, the emission maximum was 327 nm.

In the case of `COc1cccc(OC)c1C1=C2C(C)=CC(C)=[N+]2[B-](F)(F)n2c(C)cc(C)c21`, the emission maximum came out at 513 nm.

`COc1ccc2c(c1)-c1ccccc1C2=O` registered an emission maximum of 510 nm.

For `CN(C)c1ccc(/C=C/C=C2\CC/C(=C\c3ccc(N(C)C)cc3)C2=O)cc1`, the emission maximum amounted to 666 nm.

Regarding `CC(C)(C)c1ccc2c(c1)sc1[n+]2[B-](F)(F)n2c(c3cccc4c(Br)ccc2c43)=C1C#N`, the emission maximum is on record as 558 nm.

Turning to `COC(C)CC1=N/C(=C\c2cccc(N(C)C)c2)C(=O)N1C` (centres undefined), the emission maximum is given as 632 nm.

As to `CNc1cccc2c1C(=O)c1ccccc1-2`, the emission maximum is given as 533 nm.

As for `N#Cc1c2nc3ccccn3c2nc2nc3ccccn3c12`, the emission maximum stood at 525 nm.

On to `COc1cc(OC)c(C2=C3C(C)=CC(C)=[N+]3[B-](F)(F)n3c(C)cc(C)c32)c(OC)c1`, for which the emission maximum is recorded as 513 nm.

`CSc1ccc2c(c1)N(CCCN1CCN(C)CN1C)c1ccccc1S2`: the emission maximum was found to be 455 nm.

In turn, `Oc1ccccc1/C=N/c1cc2nc3ccccc3nc2cc1/N=C/c1ccccc1O` came in with an emission maximum of 501 nm.

The same data set, now with this note: in CC(=O)C(C)(C)C.
Consider `COc1cccc(OC)c1C1=C2C(C)=CC(C)=[N+]2[B-](F)(F)n2c(C)cc(C)c21`, for which the emission maximum amounted to 520 nm.

As to `COc1cc(OC)c(C2=C3C(C)=CC(C)=[N+]3[B-](F)(F)n3c(C)cc(C)c32)c(OC)c1`, the emission maximum is given as 517 nm.

The data set is the same for the next values; noted with them: in CC(C)(C)O.
The compound `COCCOc1ccc(OCCOC)c(C=O)c1` yielded an emission maximum of 441 nm.

Still in this data set, the particulars now being: in CC(C)=O.
Take `COc1cccc(OC)c1C1=C2C(C)=CC(C)=[N+]2[B-](F)(F)n2c(C)cc(C)c21`: the emission maximum is recorded as 516 nm.

`CN(C)c1ccc(/C=C/C=C2\CC/C(=C\c3ccc(N(C)C)cc3)C2=O)cc1` yielded an emission maximum of 650 nm.

`COc1cc(OC)c(C2=C3C(C)=CC(C)=[N+]3[B-](F)(F)n3c(C)cc(C)c32)c(OC)c1` gave an emission maximum of 515 nm.

Still in this data set, the particulars now being: in CC(C)CO.
Consider `COCCOc1ccc(OCCOC)c(C=O)c1`, for which the emission maximum is given as 451 nm.

The data set is the same for the next values; noted with them: in CC(C)O.
For the compound `CN(C)c1ccc(/C=C/C=C2\CC/C(=C\c3ccc(N(C)C)cc3)C2=O)cc1`, the emission maximum was determined as 687 nm.

The compound `COCCOc1ccc(OCCOC)c(C=O)c1` had an emission maximum of 453 nm.

The same data set, now with this note: in CCCCCC.
`C/C=C/c1cccc(OC)c1` yielded an emission maximum of 325 nm.

On to `COc1cccc(OC)c1C1=C2C(C)=CC(C)=[N+]2[B-](F)(F)n2c(C)cc(C)c21`, for which the emission maximum was found to be 519 nm.

With `CN(C)c1ccc(/C=C/C=C2\CC/C(=C\c3ccc(N(C)C)cc3)C2=O)cc1`, the emission maximum came to 504 nm.

Take `CC(C)(C)c1ccc2c(c1)sc1[n+]2[B-](F)(F)n2c(c3cccc4c(Br)ccc2c43)=C1C#N`: the emission maximum was 558 nm.

For the compound `COC(C)CC1=N/C(=C\c2cccc(N(C)C)c2)C(=O)N1C` (centres undefined), the emission maximum is on record as 495 nm.

On to `COc1cc(OC)c(C2=C3C(C)=CC(C)=[N+]3[B-](F)(F)n3c(C)cc(C)c32)c(OC)c1`, for which the emission maximum amounted to 520 nm.

The data set is the same for the next values; noted with them: in CCCCCO.
For `ClC(Cl)=C1c2ccccc2C(C2(Cl)c3ccccc3C(=C(Cl)Cl)c3ccccc32)c2ccccc21` (centres undefined), the emission maximum is 442.64 nm.

Still in this data set, the particulars now being: in CCCCO.
Regarding `ClC(Cl)=C1c2ccccc2C(C2(Cl)c3ccccc3C(=C(Cl)Cl)c3ccccc32)c2ccccc21` (centres undefined), the emission maximum is 446.26 nm.

`CN(C)c1ccc(/C=C/C=C2\CC/C(=C\c3ccc(N(C)C)cc3)C2=O)cc1` registered an emission maximum of 712 nm.

`COCCOc1ccc(OCCOC)c(C=O)c1`: the emission maximum stood at 457 nm.

Staying with this data set, now noted: in CCCCOC(C)=O.
On to `CN(C)c1ccc(/C=C/C=C2\CC/C(=C\c3ccc(N(C)C)cc3)C2=O)cc1`, for which the emission maximum stood at 581 nm.

Still in this data set, the particulars now being: in CCCO.
Take `ClC(Cl)=C1c2ccccc2C(C2(Cl)c3ccccc3C(=C(Cl)Cl)c3ccccc32)c2ccccc21` (centres undefined): the emission maximum was determined as 443.26 nm.

Compound `CN(C)c1ccc(/C=C/C=C2\CC/C(=C\c3ccc(N(C)C)cc3)C2=O)cc1` displayed an emission maximum of 717 nm.

`COCCOc1ccc(OCCOC)c(C=O)c1` displayed an emission maximum of 458 nm.

Still in this data set, the particulars now being: in CCO.
The compound `ClC(Cl)=C1c2ccccc2C(C2(Cl)c3ccccc3C(=C(Cl)Cl)c3ccccc32)c2ccccc21` (centres undefined) registered an emission maximum of 447.14 nm.

Source of the values: the Deep4Chem optical property database.
